Measured values: US6441168B1, “Stable crystalline salts of 5-methyltetrahydrofolic acid” (Eprova AG, priority 1999, dated 2002)
Read-outs that look alike come from different tables or passages of the source.

Key:
[1] = in air, 25° C., 60% relative humidity
Procedure: The content of 5-methyltetrahydrofolic acid salt which is quoted in the examples was s determined by HPLC in each case and is given as % area. The water content was determined by a Karl Fischer method.
In order to determine the stabilities of the crystalline salts of 5-methyltetrahydrofolic acid, the substances were stored, together with comparison specimens, in air at 25° C. and at 60% relative humidity. The content of 5-methyltetrahydrofolic acid salt remaining was measured at periodic intervals and is given by comparison with the initial value.

SMILES | Solubility at 20° C. in 0.9% NaCl [%] | Solubility at 20° C. in water [%] | content of 5-methyltetrahydrofolic acid salt remaining, compared with the initial value ([1]; storage 0 months) [%] | content of 5-methyltetrahydrofolic acid salt remaining, compared with the initial value ([1]; storage 12 months) [%] | content of 5-methyltetrahydrofolic acid salt remaining, compared with the initial value ([1]; storage 3 months) [%] | content of 5-methyltetrahydrofolic acid salt remaining, compared with the initial value ([1]; storage 6 months) [%] | content of 5-methyltetrahydrofolic acid salt remaining, compared with the initial value ([1]; storage 18 months) [%] | content of 5-methyltetrahydrofolic acid salt remaining, compared with the initial value ([1]; storage 88 months) [%]
CN1c2c([nH]c(N)nc2=O)NC[C@@H]1CNc1ccc(C(=O)N[C@@H](CCC(=O)[O-])C(=O)[O-])cc1.[Ca+2] [Type I, calcium salt of 5-methyl-(6S)-tetrahydrofolic acid] | 1.6 | 1.1 | – | – | – | – | – | –
CN1c2c([nH]c(N)nc2=O)NC[C@@H]1CNc1ccc(C(=O)N[C@@H](CCC(=O)[O-])C(=O)[O-])cc1.[Ca+2] [Amorphous calcium salt of 5-methyl-(6S)-tetrahydrofolic acid] [reference compound] | – | – | 100 | 84.2 | – | – | – | –
CN1c2c([nH]c(N)nc2=O)NC[C@@H]1CNc1ccc(C(=O)N[C@@H](CCC(=O)[O-])C(=O)[O-])cc1.[Ca+2] [Type II, calcium salt of 5-methyl-(6S)-tetrahydrofolic acid] | 5.8 | 3.8 | – | – | – | – | – | –
CN1c2c([nH]c(N)nc2=O)NC[C@@H]1CNc1ccc(C(=O)N[C@@H](CCC(=O)[O-])C(=O)[O-])cc1.[Ca+2] [Type III, calcium salt of 5-methyl-(6S)-tetrahydrofolic acid] | 1.5 | 1.0 | – | – | – | – | – | –
CN1c2c([nH]c(N)nc2=O)NC[C@@H]1CNc1ccc(C(=O)N[C@@H](CCC(=O)[O-])C(=O)[O-])cc1.[Ca+2] [Crystalline calcium salt of 5-methyl-(6S)-tetrahydrofolic ac] [calcium salt of 5-methyl-(6S)-tetrahydrofolic acid] | – | – | 100 | 99.1 | 98.6 | 98.7 | 99.0 | 97.8
